Legend:
Assay in all cases: relative viability (nuclei count vs DMSO), 5 days (fraction); higher = more cells survive
[1] = test system: COR-L23
How it was run: (§1)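 Values are medians from duplicate plates. Each reflects relative viability, defined as the nuclei count of treated wells over that of vehicle wells. Lung cancer cell lines in 1536-well plates were pin-tool dosed one day after seeding with one drug alone or with a fixed anchor-drug dose plus five library-drug doses (not always all listed) in √10 steps, then fixed, stained and imaged at 4× after 5 days.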

[2] = test system: SK-MES-1
How it was run: as §1

[3] = test system: NCI-H1993
How it was run: as §1

[4] = test system: HOP-62
How it was run: as §1

[5] = test system: ABC-1
How it was run: as §1

[6] = test system: NCI-H3122
How it was run: as §1

[7] = test system: EMC-BAC-2
How it was run: as §1

[8] = test system: HARA
How it was run: as §1

[9] = test system: LK-2
How it was run: as §1

[10] = test system: NCI-H727
How it was run: as §1

[11] = test system: NCI-H2228
How it was run: as §1

[12] = test system: NCI-H1792
How it was run: as §1

[13] = test system: PC-3 [JPC-3]
How it was run: as §1

[14] = test system: NCI-H2009
How it was run: as §1

[15] = test system: LU99A
How it was run: as §1

[16] = test system: SK-LU-1
How it was run: as §1

[17] = test system: NCI-H596
How it was run: as §1

[18] = test system: A-427
How it was run: as §1

[19] = test system: SW 1573
How it was run: as §1

[20] = test system: NCI-H2170
How it was run: as §1

[21] = test system: LXF-289
How it was run: as §1

[22] = test system: NCI-H1944
How it was run: as §1

Structure (SMILES): C[C@@H]1CN(CC(=O)Nc2ccc3c(c2)Cc2cccc(-c4cc(=O)cc(N5CCOCC5)o4)c2S3)C[C@H](C)O1 + C[C@@H](Oc1cc(-c2cnn(C3CCNCC3)c2)cnc1N)c1c(Cl)ccc(F)c1Cl [Crizotinib] (partner 1 µM)
- relative viability ([1]; first compound 0.04 µM): 0.678
- relative viability ([1]; first compound 0.1265 µM): 0.625
- relative viability ([1]; first compound 0.4 µM): 0.693
- relative viability ([1]; first compound 4 µM): 0.516
- relative viability ([2]; first compound 0.04 µM): 1.08
- relative viability ([2]; first compound 0.1265 µM): 0.991
- relative viability ([2]; first compound 0.4 µM): 0.917
- relative viability ([2]; first compound 4 µM): 0.774
- relative viability ([3]; first compound 0.04 µM): 0.876
- relative viability ([3]; first compound 0.1265 µM): 0.846
- relative viability ([3]; first compound 0.4 µM): 0.661
- relative viability ([3]; first compound 4 µM): 0.85
- relative viability ([4]; first compound 0.04 µM): 0.876
- relative viability ([4]; first compound 0.1265 µM): 1
- relative viability ([4]; first compound 0.4 µM): 0.884
- relative viability ([4]; first compound 4 µM): 0.941
- relative viability ([5]; first compound 0.1265 µM): 1.17
- relative viability ([5]; first compound 0.4 µM): 1.15
- relative viability ([5]; first compound 4 µM): 0.723
- relative viability ([6]; first compound 0.04 µM): 0.349
- relative viability ([6]; first compound 0.1265 µM): 0.324
- relative viability ([6]; first compound 0.4 µM): 0.264
- relative viability ([6]; first compound 4 µM): 0.282
- relative viability ([7]; first compound 0.04 µM): 0.57
- relative viability ([7]; first compound 0.1265 µM): 0.761
- relative viability ([7]; first compound 0.4 µM): 0.75
- relative viability ([7]; first compound 4 µM): 0.819
- relative viability ([8]; first compound 0.04 µM): 0.697
- relative viability ([8]; first compound 0.1265 µM): 0.96
- relative viability ([8]; first compound 0.4 µM): 1.07
- relative viability ([8]; first compound 4 µM): 0.988
- relative viability ([9]; first compound 0.1265 µM): 0.198
- relative viability ([9]; first compound 0.4 µM): 0.242
- relative viability ([9]; first compound 4 µM): 0.191
- relative viability ([10]; first compound 0.04 µM): 0.891
- relative viability ([10]; first compound 0.1265 µM): 0.746
- relative viability ([10]; first compound 0.4 µM): 0.927
- relative viability ([10]; first compound 4 µM): 0.624
- relative viability ([11]; first compound 0.04 µM): 0.568
- relative viability ([11]; first compound 0.1265 µM): 0.394
- relative viability ([11]; first compound 0.4 µM): 0.283
- relative viability ([11]; first compound 4 µM): 0.341
- relative viability ([12]; first compound 0.04 µM): 0.966
- relative viability ([12]; first compound 0.1265 µM): 0.921
- relative viability ([12]; first compound 0.4 µM): 0.959
- relative viability ([12]; first compound 4 µM): 0.932
- relative viability ([13]; first compound 0.04 µM): 0.947
- relative viability ([13]; first compound 0.1265 µM): 0.936
- relative viability ([13]; first compound 0.4 µM): 0.971
- relative viability ([13]; first compound 4 µM): 0.962
- relative viability ([14]; first compound 0.04 µM): 1.05
- relative viability ([14]; first compound 0.1265 µM): 1.03
- relative viability ([14]; first compound 0.4 µM): 1.09
- relative viability ([14]; first compound 4 µM): 0.769
- relative viability ([15]; first compound 0.04 µM): 0.523
- relative viability ([15]; first compound 0.1265 µM): 0.636
- relative viability ([15]; first compound 0.4 µM): 0.64
- relative viability ([15]; first compound 4 µM): 0.569
- relative viability ([16]; first compound 0.04 µM): 1.08
- relative viability ([16]; first compound 0.1265 µM): 0.905
- relative viability ([16]; first compound 0.4 µM): 0.902
- relative viability ([16]; first compound 4 µM): 0.605
- relative viability ([17]; first compound 0.04 µM): 0.934
- relative viability ([17]; first compound 0.1265 µM): 0.928
- relative viability ([17]; first compound 0.4 µM): 0.983
- relative viability ([17]; first compound 4 µM): 0.964
- relative viability ([18]; first compound 0.04 µM): 1.04
- relative viability ([18]; first compound 0.1265 µM): 0.941
- relative viability ([18]; first compound 0.4 µM): 0.827
- relative viability ([18]; first compound 4 µM): 0.844
- relative viability ([19]; first compound 0.04 µM): 0.904
- relative viability ([19]; first compound 0.1265 µM): 0.918
- relative viability ([19]; first compound 0.4 µM): 0.744
- relative viability ([19]; first compound 4 µM): 0.746
- relative viability ([20]; first compound 0.1265 µM): 1.2
- relative viability ([20]; first compound 0.4 µM): 1.21
- relative viability ([20]; first compound 4 µM): 1.1
- relative viability ([21]; first compound 0.04 µM): 0.777
- relative viability ([21]; first compound 0.1265 µM): 0.877
- relative viability ([21]; first compound 0.4 µM): 0.814
- relative viability ([21]; first compound 4 µM): 0.799
- relative viability ([22]; first compound 0.1265 µM): 1.09
- relative viability ([22]; first compound 0.4 µM): 1.22
- relative viability ([22]; first compound 4 µM): 1.16

— the supplement of paper PMC10307832
